Assay results from US4259328A, “Morpholino pyridazinylhydrazones” (Richter Gedeon Vegyeszeti Gyar Rt, priority 1977, dated 1981).
Like-named read-outs stand apart in the source and are kept apart here.

Legend:
[1] = test system: spontaneous hypertensive rats (Wistar-Okamoto rats); test: Blood pressure lowering activity, systolic blood pressure of waking spontaneous hypertensive rats, oral; assay type: in vivo, rat; details: for change in vivo at 20 mg/kg / change in vivo at 50 mg/kg / change in vivo at 2.5 mg/kg: Rattus norvegicus, oral, read-out: Reduction in blood pressure; for significant blood pressure lowering activity: ≥-15%
Experimental: Blood pressure lowering activity of the new compounds according to the invention was tested on spontaneous hypertensive rats (Wistar-Okamoto rats) following the method described in Arzn. Forsch., 6, 222 (1956). Systolic blood pressure of waking animals was measured in arteria caudalis 4, 24, 48 and 72 hours after the oral administration of the test compounds.

dopamine-β-hydroxylase = target: T1, dopamine-β-hydroxylase (Bos taurus, UniProt P15101); test: Dopamine-β-hydroxylase inhibiting activity (DBH) on bovine adrenal (gland) preparations; assay type: biochemical; details: read-out: Enzyme inhibiting activity, DBH; for inhibition at 100 µM: 10^-4 mole/liter; for inhibition at 10 µM: 10^-5 mole/liter
T1 construct: from tissue; host or cells: bovine adrenal (gland) preparations
T1 sequence (P15101 1-610): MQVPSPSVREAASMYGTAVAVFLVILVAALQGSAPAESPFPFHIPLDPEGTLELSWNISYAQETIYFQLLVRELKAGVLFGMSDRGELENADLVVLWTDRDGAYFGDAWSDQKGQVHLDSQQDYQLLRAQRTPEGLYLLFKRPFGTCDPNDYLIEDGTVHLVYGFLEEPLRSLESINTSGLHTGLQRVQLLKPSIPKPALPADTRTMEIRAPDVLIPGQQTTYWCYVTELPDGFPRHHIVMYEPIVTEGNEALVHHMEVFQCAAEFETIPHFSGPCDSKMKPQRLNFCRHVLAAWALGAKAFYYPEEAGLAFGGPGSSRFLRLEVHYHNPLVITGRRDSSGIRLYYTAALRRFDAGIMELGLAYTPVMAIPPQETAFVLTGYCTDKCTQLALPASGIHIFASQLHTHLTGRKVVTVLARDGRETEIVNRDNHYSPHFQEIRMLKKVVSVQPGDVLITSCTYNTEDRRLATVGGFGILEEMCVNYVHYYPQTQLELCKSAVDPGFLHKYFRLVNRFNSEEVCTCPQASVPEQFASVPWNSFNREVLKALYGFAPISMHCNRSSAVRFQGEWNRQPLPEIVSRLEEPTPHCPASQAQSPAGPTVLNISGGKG
Experimental: Dopamine-β-hydroxylase inhibiting activity (DBH inhibiting activity) of the compounds according to the invention was tested on bovine adrenal (gland) preparations by a modified version of Nagatsu's method [B.B. Acta, 139 319 (1967)].
(§1) Inhibiting effect of several compounds encompassed by the formula I in comparison with some known compounds is listed in the following Table I.

[2] = Acute toxicity (LD50) on mice; details: mouse, in vivo, po
tyrosine-hydroxylase = target: T2, tyrosine-hydroxylase (Rattus norvegicus, UniProt P04177); test: In vitro tyrosine-hydroxylase inhibiting activity (TH) on rat adrenal homogenate; assay type: biochemical; details: read-out: Enzyme inhibiting activity, TH; for inhibition at 100 µM: 10^-4 mole/liter; for inhibition at 10 µM: 10^-5 mole/liter
T2 construct: on rat adrenal homogenate; from tissue; host or cells: rat adrenal homogenate
Experimental: In vitro tyrosine-hydroxylase inhibiting activity (TH inhibiting activity) of the new compounds according to the invention was tested by the method of Nagatsu [Anal. Biochem., 9, 122 (1964)] on rat adrenal homogenate. Radioactive tyrosine was purified by the method elaborated by Ikeda [J. Biol. Chem., 241, 4452 (1966)]. TH activity of the rat adrenal homogenate amounted to […] nmoles/mg protein/60 min.
as §1

T2 sequence (P04177 whole entry): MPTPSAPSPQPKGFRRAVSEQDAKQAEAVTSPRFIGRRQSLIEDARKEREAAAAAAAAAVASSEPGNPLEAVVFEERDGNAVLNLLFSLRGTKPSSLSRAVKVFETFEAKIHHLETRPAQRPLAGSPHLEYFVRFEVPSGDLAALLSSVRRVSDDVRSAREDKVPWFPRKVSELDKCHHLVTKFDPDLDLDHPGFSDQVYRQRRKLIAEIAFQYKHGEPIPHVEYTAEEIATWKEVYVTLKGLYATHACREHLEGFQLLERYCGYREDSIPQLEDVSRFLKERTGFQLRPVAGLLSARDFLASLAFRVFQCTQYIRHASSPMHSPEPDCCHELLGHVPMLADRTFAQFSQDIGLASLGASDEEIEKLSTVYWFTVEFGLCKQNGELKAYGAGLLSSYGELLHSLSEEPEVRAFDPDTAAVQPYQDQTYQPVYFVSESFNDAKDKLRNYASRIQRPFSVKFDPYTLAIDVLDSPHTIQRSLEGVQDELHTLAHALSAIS

Row | SMILES | significant blood pressure lowering activity [1] | inhibition at 100 µM (dopamine-β-hydroxylase) | inhibition at 10 µM (dopamine-β-hydroxylase) | LD50 [2] | also measured
1 | CC(CCC(=O)O)=NNc1ccc(C)nn1 [Example 55, 4-Carboxy-2-butylidene-(3-methyl-6-pyridazinyl) hydrazone] | ≥ -15% | 50% | 0% | > 200 mg/kg | change in vivo at 20 mg/kg ([1]; 4 hours): -39%; change in vivo at 20 mg/kg ([1]; 24 hours): -14%
2 | COC(=O)CCC(C)=NNc1ccc(Cl)nn1 [Example 23] | ≥ -15% | 70% | 50% | 200 mg/kg | change in vivo at 50 mg/kg ([1]; 4 hours): -21%; change in vivo at 50 mg/kg ([1]; 24 hours): -8%
3 | c1cc(N2CCOCC2)nnc1NN=C1CCCCC1 [Example 10, Cyclohexylidene-3-morpholino-6-pyridazinylhydrazone] | ≥ -15% | – | – | < 200 mg/kg | change in vivo at 2.5 mg/kg ([1]; 4 hours): -41%; change in vivo at 2.5 mg/kg ([1]; 24 hours): -26%
4 | CC(CC(=O)OC(C)(C)C)=NNc1ccc(C)nn1 [Example 53, 3-(tert.-Butoxycarbonyl)-2-propylidene-(3-methyl-6-pyridazinyl) hydrazone] | ≥ -15% | – | – | 200 mg/kg | change in vivo at 50 mg/kg ([1]; 4 hours): -32%; change in vivo at 50 mg/kg ([1]; 24 hours): -27%
5 | CC(CC(=O)OC(C)(C)C)=NNc1ccc(C(N)=O)nn1 [Example 56, 3-(tert.-Butoxycarbonyl)-2-propylidene-(3-carbamoyl-6-pyridazinyl) hydrazine] | ≥ -15% | – | – | > 200 mg/kg | change in vivo at 20 mg/kg ([1]; 4 hours): -20%; change in vivo at 20 mg/kg ([1]; 24 hours): 0%
6 | CCOC(=O)CC(=NNc1ccc(Cl)nn1)c1cccnc1 [Example 37, 1-(Ethoxycarbonyl)-2-(3-pyridyl)-2-ethylidene-3-chloro-6-pyridazinylhydrazone] | – | 100% | 41% | – | –
7 | CC1CCCCC1=NNc1ccc(Cl)nn1 (centres unmarked) [Example 15, 2-Methyl-1-cyclohexylidene-3-chloro-6-pyridazinylhydrazone] | – | 88% | 32% | – | inhibition at 100 µM (tyrosine-hydroxylase): 100%; inhibition at 10 µM (tyrosine-hydroxylase): 50%
8 | O=C(O)C1CCCCC1=NNc1ccc(Cl)nn1 (centres unmarked) [Example 18, 2-Carboxy-1-cyclohexylidene-3-chloro-6-pyridazinylhydrazone] | – | 88% | 32% | – | inhibition at 100 µM (tyrosine-hydroxylase): 100%; inhibition at 10 µM (tyrosine-hydroxylase): 50%
9 | CC(=NNc1cccnn1)c1ccccc1 [Example 13, 1-Phenyl-1-ethylidene-3-pyridazinylhydrazone] | – | 90% | 10% | – | inhibition at 100 µM (tyrosine-hydroxylase): 95%; inhibition at 10 µM (tyrosine-hydroxylase): 40%
10 | CCOC(=O)CC(C)=NNc1cccnn1 [Example 22, 3-(Ethoxycarbonyl)-2-propylidene-(3-pyridazinyl)hydrazone] | – | 100% | 56% | – | inhibition at 100 µM (tyrosine-hydroxylase): 100%; inhibition at 10 µM (tyrosine-hydroxylase): 50%
11 | CC(N)(Cc1ccc(O)cc1)C(=O)O (racemic) [D,L-α-methyl-4-hydroxy-phenyl-alanine, reference compound] | – | 0% | 0% | – | inhibition at 100 µM (tyrosine-hydroxylase): 100%; inhibition at 10 µM (tyrosine-hydroxylase): 60%
12 | c1cnnc(NN=C2CCCCC2)c1 [Example 12, Cyclohexylidene-3-pyridazinylhydrazone] | – | 84% | 10% | – | inhibition at 100 µM (tyrosine-hydroxylase): 100%; inhibition at 10 µM (tyrosine-hydroxylase): 85%
13 | CCOC(=O)CC(CC)=NNc1ccc(Cl)nn1 [Example 27, 1-(Ethoxycarbonyl)-2-butylidene-3-chloro-6-pyridazinylhydrazone] | ≥ -15% | – | – | – | –
14 | CCOC(=O)CC(=NNc1ccc(Cl)nn1)c1ccccc1 [Example 34, 1-(Ethoxycarbonyl)-2-phenyl-2-ethylidene-3-chloro-6-pyridazinylhydrazone] | – | 100% | 40% | – | –
15 | CCOC(=O)CCCCC(C)=NNc1ccc(Cl)nn1 [Example 49, 6-(Ethoxycarbonyl)-2-hexylidene-3-chloro-6-pyridazinylhydrazone] | ≥ -15% | 66% | 50% | < 200 mg/kg | change in vivo at 20 mg/kg ([1]; 4 hours): -22%; change in vivo at 20 mg/kg ([1]; 24 hours): -13%
16 | CC(CCC(=O)O)=NNc1ccc(N2CCOCC2)nn1 [Example 48, 4-Carboxy-2-butylidene-3-morpholino-6-pyridazinylhydrazone] | ≥ -15% | – | – | 200 mg/kg | change in vivo at 2.5 mg/kg ([1]; 4 hours): -33%; change in vivo at 2.5 mg/kg ([1]; 24 hours): -8%
17 | CCOC(=O)CCC(C)=NNc1ccc(Cl)nn1 [Example 62, 4-(Ethoxycarbonyl)-2-butylidene-(3-chloro-6-pyridazinl)hydrazone] | ≥ -15% | 60% | – | 200 mg/kg | change in vivo at 50 mg/kg ([1]; 4 hours): -29%; change in vivo at 50 mg/kg ([1]; 24 hours): -26%
18 | CC12CCC(CC1=NNc1cccnn1)C2(C)C (centres unmarked) [Example 3, 1,7,7-Trimethy-2-bicyclo-[2,2,1]heptylidene-3-pyridazinylhydrazone] | – | 80% | 0% | – | inhibition at 100 µM (tyrosine-hydroxylase): 100%; inhibition at 10 µM (tyrosine-hydroxylase): 75%
19 | CCCCc1ccc(C(=O)O)nc1 [Fusaric acid, reference compound] | – | 100% | 100% | – | inhibition at 100 µM (tyrosine-hydroxylase): 0%; inhibition at 10 µM (tyrosine-hydroxylase): 0%
20 | CCOC(=O)CCCC(C)=NNc1ccc(Cl)nn1 [Example 26] | ≥ -15% | – | – | 200 mg/kg | change in vivo at 50 mg/kg ([1]; 4 hours): -38%; change in vivo at 50 mg/kg ([1]; 24 hours): -29%
21 | CC(CCCC(=O)O)=NNc1ccc(Cl)nn1 [Example 50, 5-Carboxy-2-pentylidene-3-chloro-6-pyridazinylhydrazone] | ≥ -15% | 73% | 0% | 200 mg/kg | change in vivo at 20 mg/kg ([1]; 4 hours): -28%; change in vivo at 20 mg/kg ([1]; 24 hours): -30%
22 | CCOC(=O)C(C)C(C)=NNc1ccc(Cl)nn1 (centres unmarked) [Example 25, 3-(Ethoxycarbonyl)-2-butylidene-3-chloro-6-pyridazinylhydrazone] | ≥ -15% | – | – | 200 mg/kg | change in vivo at 50 mg/kg ([1]; 4 hours): -33%; change in vivo at 50 mg/kg ([1]; 24 hours): -17%
23 | CCOC(=O)CC=NNc1ccc(Cl)nn1 [Example 65, 2-(Ethoxycarbonyl)-1-ethylidene-(3-chloro-6-pyridazinyl)hydrazone] | ≥ -15% | 73% | 44% | > 200 mg/kg | change in vivo at 50 mg/kg ([1]; 4 hours): -18%; change in vivo at 50 mg/kg ([1]; 24 hours): -23%
24 | CC(CCC(=O)OC(C)(C)C)=NNc1ccc(Cl)nn1 [Example 43, 4-(tert.-Butoxycarbonyl)-2-butylidene-3-chloro-6-pyridazinylhydrazone] | ≥ -15% | – | – | 200 mg/kg | change in vivo at 50 mg/kg ([1]; 4 hours): -32%; change in vivo at 50 mg/kg ([1]; 24 hours): -18%
25 | COC(=O)CC(C)=NNc1ccc(Cl)nn1 [Example 24, 3-(Methoxycarbonyl)-2-propylidene-3-chloro-6-pyridazinylhydrazone] | – | 100% | 50% | – | –
26 | CC(CCC(=O)O)=NNc1ccc(Cl)nn1 [Example 38, 4-Carboxy-2-butylidene-3-chloro-6-pyridazinylhydrazone] | ≥ -15% | – | – | 200 mg/kg | change in vivo at 50 mg/kg ([1]; 4 hours): -34%; change in vivo at 50 mg/kg ([1]; 24 hours): -27%
27 | CC(CCCC(=O)O)=NNc1ccc(N2CCOCC2)nn1 [Example 57, 5-Carboxy-2-pentylidene-3-morpholino-6-pyridazinylhydrazone] | ≥ -15% | – | – | 200 mg/kg | change in vivo at 2.5 mg/kg ([1]; 4 hours): -28%; change in vivo at 2.5 mg/kg ([1]; 24 hours): -16%
